Measurements taken from the NIST ThermoML archive (doi:10.1016/j.fluid.2006.07.015).
± gives the expanded uncertainty stated by the source.

How the values were obtained:
[1] = Crystal; visual observation
[2] = activity coefficient (dimensionless); of the first substance listed, at infinite dilution; xn = mol fraction of the nth substance listed; conditions: 101 kPa, Liquid, Chromatography, x1 = 0

SMILES | Normal melting temperature [1] [°C] | activity coefficient ([2]; 373.15 K) | activity coefficient ([2]; 388.15 K) | activity coefficient ([2]; 403.15 K) | activity coefficient ([2]; 418.15 K) | activity coefficient ([2]; 433.15 K)
CCCCCCCCCCCCCCCCCCC(CCCCCCCCCCCCCCCCCC)CCCCC(CCCCCCCCCCCCCCCCCC)CCCCCCCCCCCCCCCCCC [19,24-dioctadecyldotetracontane] | 72 ± 6 |  |  |  |  | 
CCCCC [pentane] + CCCCCCCCCCCCCCCCCCC(CCCCCCCCCCCCCCCCCC)CCCCC(CCCCCCCCCCCCCCCCCC)CCCCCCCCCCCCCCCCCC |  | 0.336 ± 0.035 | 0.338 ± 0.035 | 0.341 ± 0.035 | 0.345 ± 0.035 | 0.349 ± 0.035
C#CCCCCCCCC [1-decyne] + CCCCCCCCCCCCCCCCCCC(CCCCCCCCCCCCCCCCCC)CCCCC(CCCCCCCCCCCCCCCCCC)CCCCCCCCCCCCCCCCCC |  | 0.442 ± 0.033 | 0.446 ± 0.033 | 0.446 ± 0.033 | 0.446 ± 0.033 | 0.446 ± 0.033

Other lines, results leading:

Normal melting temperature [1] [°C] | activity coefficient ([2]; 373.15 K) | activity coefficient ([2]; 388.15 K) | activity coefficient ([2]; 403.15 K) | activity coefficient ([2]; 418.15 K) | activity coefficient ([2]; 433.15 K) | SMILES
 | 0.378 ± 0.034 | 0.385 ± 0.034 | 0.381 ± 0.034 | 0.38 ± 0.034 | 0.376 ± 0.034 | CCCCCc1ccccc1 [pentylbenzene] + CCCCCCCCCCCCCCCCCCC(CCCCCCCCCCCCCCCCCC)CCCCC(CCCCCCCCCCCCCCCCCC)CCCCCCCCCCCCCCCCCC
 | 0.26 ± 0.036 | 0.268 ± 0.036 | 0.269 ± 0.036 | 0.266 ± 0.036 | 0.27 ± 0.036 | C1CCC2CCCC2C1 (stereo unspecified) [1H-indene, octahydro-] + CCCCCCCCCCCCCCCCCCC(CCCCCCCCCCCCCCCCCC)CCCCC(CCCCCCCCCCCCCCCCCC)CCCCCCCCCCCCCCCCCC
 | 0.378 ± 0.034 | 0.377 ± 0.034 | 0.377 ± 0.034 | 0.378 ± 0.034 | 0.38 ± 0.034 | CC#CCCC [2-hexyne] + CCCCCCCCCCCCCCCCCCC(CCCCCCCCCCCCCCCCCC)CCCCC(CCCCCCCCCCCCCCCCCC)CCCCCCCCCCCCCCCCCC
 | 0.397 ± 0.034 | 0.401 ± 0.034 | 0.401 ± 0.034 | 0.405 ± 0.034 | 0.406 ± 0.034 | CC(C)CC(C)(C)C [2,2,4-trimethylpentane] + CCCCCCCCCCCCCCCCCCC(CCCCCCCCCCCCCCCCCC)CCCCC(CCCCCCCCCCCCCCCCCC)CCCCCCCCCCCCCCCCCC
